Test [1] concerns Staphylococcus aureus. Description: Antibacterial activity against methicillin-sensitive Staphylococcus aureus at 50 ug/well. It is filed as functional.
Test [2] has as its system Staphylococcus aureus. In words: Antibacterial activity against methicillin-resistant Staphylococcus aureus at 50 ug/well. The test is classed as functional.
For test [3], the system named is Enterococcus faecium. In words: Antibacterial activity against vancomycin-resistant Enterococcus faecium at 50 ug/well. The test is classed as functional.
Test [4] deals with Candida albicans. Description: Antimicrobial activity against Candida albicans at 50 ug/well. It is filed as functional.
Test [5] deals with Staphylococcus aureus. In words: Antibacterial activity against methicillin-sensitive Staphylococcus aureus at 200 ug/well. The test is classed as functional, organism-based.
Test [6] relates to Staphylococcus aureus. Description: Antibacterial activity against methicillin-resistant Staphylococcus aureus at 200 ug/well. It is filed as functional, organism-based.
Test [7] concerns Enterococcus faecium. In words: Antibacterial activity against vancomycin-resistant Enterococcus faecium at 200 ug/well. It is filed as functional, organism-based.
In test [8] the test system is Candida albicans. Description: Antimicrobial activity against Candida albicans at 200 ug/well. The test is classed as functional, organism-based.

We go through three compounds from ChEMBL document CHEMBL1148207, “Dictyosphaeric acids A and B: new decalactones from an undescribed Penicillium sp. obtained from the alga Dictyosphaeria versluyii” (2004).

Structures are written as SMILES. Active and inactive are the calls of the source. The rule behind the calls is not given here.

In the case of `COc1cc(CO)cc2c1C(=O)c1c(O)cc(O)cc1C2=O`, the outcome in test [1], in test [2], in test [3], in test [4], in test [5] and in test [6] was inactive. Moreover, the outcome in test [7] and in test [8] was inactive.

Consider `C[C@H]1CCC[C@@H](O)[C@]2(O)C(=O)C=C[C@@H]3OC(/C=C/C=C/C=C/C(=O)O)=C(C(=O)O1)[C@@H]32` [DICTYOSPHAERIC ACID A], for which the zone of inhibition at 50 µg/disc in test [1] (read-out: IZ) came out at 11 mm; in test [2] (read-out: IZ), 12 mm; in test [3] (read-out: IZ), 7 mm; in test [4] (read-out: IZ) it was 7 mm.

As to `C[C@H]1CCC[C@@H](O)[C@]2(O)C(=O)C[C@H](O)[C@@H]3OC(/C=C/C=C/C=C/C(=O)O)=C(C(=O)O1)[C@@H]32`, the result in test [1], in test [2], in test [3] and in test [4] was inactive.
